# Assay results as given in PMC9413440, “An Iterative Approach Guides Discovery of the FabI Inhibitor Fabimycin, a Late-Stage Antibiotic Candidate with In Vivo Efficacy against Drug-Resistant Gram-Negative Infections” (ACS Central Science, 2022).
# Read-outs that look alike come from different tables or passages of the source.
# Key:
# Streptococcus pneumoniae = test: MIC, Streptococcus pneumoniae strains; format: cell-based
# Method: (§1) II. Materials and Methods for Biological Experiments
# (§2) S. aureus ATCC 29213 and E. coli MG1655 were obtained from the American Type Culture Collection (ATCC). E. coli BW25113 and E. coli JW5503 were obtained from the Keio Collection. AR-bank strains were obtained from the Centers for Disease Control and Prevention and FDA Antibiotic Resistance Isolate Bank.
# (§3) Antimicrobial susceptibility tests
# (§4) Susceptibility testing was performed in biological triplicate, unless noted otherwise, using the micro-dilution broth method as outlined by the Clinical and Laboratory Standards Institute. Bacteria were cultured with cation-adjusted Mueller Hinton broth (Sigma Aldrich, catalogue number: 90922). […]
# (§5) NH3: m/z 391.2 → 171.0. Fabimycin: m/z 405.3 → 145.3. Power analysis was not used to determine the number of replicates. Error bars represent the standard error of the mean of three biological replicates. All compounds evaluated in biological assays were ≥95% pure.
# [1] = test system: Bacteroides cellulosilyticus KLE 2342; test: MIC, commensal bacteria; format: cell-based; settings: KLE2342
# Method: as §1, §2, §3, §4, §5
# [2] = test system: Faecalibacterium prausnitzii ATCC 27768; test: MIC, commensal bacteria; format: cell-based; settings: ATCC27768
# Method: as §1, §2, §3, §4, §5
# [3] = test system: Bacteroides vulgatus KLE 2303; test: MIC, commensal bacteria; format: cell-based; settings: Phocaeicola vulgatus, KLE2303
# Method: as §1, §2, §3, §4, §5
# [4] = Pharmacokinetic assessment in neutropenic A. baumannii-infected mice; format: in vivo, mouse; settings: for Cmax / AUC(0-t) / clearance / half-life: single dose; for TimeHigh: time above the MIC of the infective strain (2 µg/mL)
# Source text: Pharmacokinetic assessment
# The protocol to assess fabimycin’s pharmacokinetic properties in A. baumanii-infected mice (strain: AR-0088) was approved by the IACUC at Pharmacology Discovery Services, Taiwan, Ltd. (protocol mumber: PK001-09212018). In this study, neutropenic female BALB/c mice 7-8 weeks in age from BioLASCO Taiwan (AAALAC-certified Charles River Licensee) weighing 18 ± 2 grams were used.10 All animals were specific pathogen free. Mice were rendered neutropenic via cyclophosphamide (CP) administration by two intraperitoneal (IP) injections following a standard method for mouse thigh infection models.11 The first CP dose, 150 mg/kg, was administered at four days before infection (Day –4); and the second, 100 mg/kg, at 24 h before infection (Day –1), prior to infection on Day 0.
# To inoculate the mice, A. baumannii cultures were first generated by seeding brain heart infusion (BHI, 20 mL) with an aliquot (0.2 mL) of a single-used glycerol stock of A. baumannii AR-0088 stored at -80 °C and incubating at 35-37 °C with shaking (250 rpm) for 6 hours. An aliquot of this culture (1.0 mL) was used to seed fresh BHI media (99 mL) and this shaken (250 rpm) at 35-37 °C for 16 hours. Bacterial cells were harvested by centrifuging 20 mL of this outgrowth culture (3,500 x g) for 15 minutes and re-suspending in fresh cold phosphate buffered saline (PBS, 10 mL). The optical density at 620 nm was measured and used to guide dilutions. PBS suspensions were stored on ice for no more than 1 hour prior to animal inoculation. The bacterial count in the challenge organism suspension was enumerated by dilution plating on to nutrient gar plates followed by 20-24 hour incubation. The target inoculum is 1.0 * 10^5 CFU/mouse for the strain […]
# Fabimycin was IV administered once followed by terminal blood sampling at 8 time points with cardiac puncture (5, 15, 30, 45, 60, 120, 240, and 480 minutes). Terminal blood collection from cardiac puncture was conducted under CO2 euthanasia. Blood, 0.3-0.4 mL, was drawn into tubes coated with K2EDTA, mixed gently and kept on ice and centrifuged at 12,000 × g for 5 minutes at 4°C within 1 hour of collection. The plasma was harvested and stored at -80 °C until further processing. Thigh tissues were aseptically harvested from the left thigh of the infected animals, weighed, and homogenized in sterile PBS (3 mL, pH 7.4) with a Polytron homogenizer. The thigh homogenate was collected and stored at -80 °C until further processing.
# For LC-MS/MS sample processing a 20 µL aliquot of each plasma and thigh sample was transferred to 96 well plate. A 300 µL aliquot of 0.01 ng/µL internal standard (IS), oxybutynin, in MeOH/FA=95/5 was added to each tube except for the double blank and carryover controls. A 300 μL aliquot of MeOH/FA=95/5, without oxybutynin, was added to the double blank and carryover assay wells. The equilibrated mixture was vortexed for 1 min and then centrifuged at 4,000 rpm for 5 min at 20 °C to precipitate protein. After centrifugation, 50 µL of the supernatant was transferred to a new well of the 96 well plate and 500 μL H2O/FA=100/0.2 added for LC-MS/MS analysis. Plasma and thigh samples from treatment groups and the calibration curve samples were processed on the same test occasion using the same procedure.
# The calibration curve samples were generated by spiking aliquots of drug-free plasma or thigh homogenates with the test article dilution. The quality control (QC) samples, QH (high), QM (medium) and QL (low) were each assayed in duplicate. The PK parameters for the IV doses were obtained from the non-compartmental analysis (NCA) of the plasma and thigh homogenate data using WinNonlin (Phoenix® Build 8.3.1.5014).
# LC-MS/MS runs were conducted with a SCIEX Triple Quad™ 5500+ mass sp ectrometer. Method development was conducted to determine appropriate conditions for LC-MS/MS analysis of fabimycin. A titration of a stock solution was performed to correlate peak areas and the corresponding concentration. […]
# [5] = female, BALB/c, mouse, plasma, 75 mg/kg, IV
# [6] = female, BALB/c, mouse, plasma, 100 mg/kg, IV
# [7] = female, BALB/c, mouse, thigh, 75 mg/kg, IV
# [8] = female, BALB/c, mouse, thigh, 100 mg/kg, IV
structure (smiles),measurement,setting,value
Cc1c(CN(C)C(=O)/C=C/c2cnc3c(c2)CC[C@H](N)C(=O)N3)oc2ccccc12 [fabimycin],MIC,Streptococcus pneumoniae; S. pneumoniae 202-5872,>128 µg/mL
same,MIC,Streptococcus pneumoniae; S. pneumoniae 202-6154,>128 µg/mL
same,MIC,Streptococcus pneumoniae; S. pneumoniae 202-6515,>128 µg/mL
same,MIC,Streptococcus pneumoniae; S. pneumoniae 202-7382,>128 µg/mL
same,MIC,Streptococcus pneumoniae; S. pneumoniae CO314937,>128 µg/mL
same,MIC,Streptococcus pneumoniae; S. pneumoniae MD77773,>128 µg/mL
same,MIC,Streptococcus pneumoniae; S. pneumoniae MD77841,>128 µg/mL
same,MIC,Streptococcus pneumoniae; S. pneumoniae NYO5984,>128 µg/mL
same,MIC,"Streptococcus pneumoniae; Streptococcus pneumoniae, ATCC49619, S. pneumoniae ATCC 49619, read-out: MIC",> 128 µg/mL
same,MIC,"Streptococcus pneumoniae; Streptococcus pneumoniae, S. pneumoniae NYO5986, read-out: MIC",> 128 µg/mL
same,MIC,[1],> 128 µg/mL
same,MIC,[2],> 128 µg/mL
same,MIC,[3],> 128 µg/mL
same,Cmax,"[4]; female, BALB/c, mouse, plasma, iv, 75 mg/kg, plasma, 75 mg/kg, read-out: Cmax",34600 ng/mL
same,Cmax,"[4]; female, BALB/c, mouse, plasma, iv, 100 mg/kg, plasma, 100 mg/kg, read-out: Cmax",47300 ng/mL
same,Cmax,"[4]; female, BALB/c, mouse, thigh, iv, 75 mg/kg, thigh, 75 mg/kg, read-out: Cmax",33000 ng/g
same,Cmax,"[4]; female, BALB/c, mouse, thigh, iv, 100 mg/kg, thigh, 100 mg/kg, read-out: Cmax",60200 ng/g
same,AUC(0-t),[4]; [5],45400 ng·h/mL
same,clearance,[4]; [5],26.9 mL/min/kg
same,half-life,[4]; [5],1.4 h
same,AUC(0-t),[4]; [6],69800 ng·h/mL
same,clearance,[4]; [6],23.5 mL/min/kg
same,half-life,[4]; [6],1.4 h
same,AUC(0-t),[4]; [7],65200 ng·h/mL
same,clearance,[4]; [7],18.9 mL/min/kg
same,half-life,[4]; [7],1.39 h
same,AUC(0-t),[4]; [8],112000 ng·h/mL
same,clearance,[4]; [8],14.7 mL/min/kg
same,half-life,[4]; [8],1.24 h
same,TimeHigh,"[4]; plasma, 75 mg/kg, IV",5.70 h
same,Cmax,"[4]; plasma, 100 mg/kg, IV",47000 ng/mL
same,TimeHigh,"[4]; plasma, 100 mg/kg, IV",6.67 h
same,TimeHigh,"[4]; thigh, 75 mg/kg, IV",over 6 h
same,TimeHigh,"[4]; thigh, 75 mg/kg, IV, listed as Fabimycin",6.22 h
same,TimeHigh,"[4]; thigh, 100 mg/kg, IV",7.19 h
